The values that follow are results of earlier work, collected in US20030099725A1, “Herbal compositions useful as chemopreventive and therapeutic agents and methods of manufacturing same” (priority 2001, published 2003).

The test system of this data set is women at high risk of breast cancer.

For the compound `CC/C(=C(\c1ccccc1)c1ccc(OCCN(C)C)cc1)c1ccccc1` [Tamoxifen], the “decrease in invasive cancer versus placebo” value was 49% and the “decrease in non-invasive breast cancer versus placebo” value is recorded as 50%.
